This is an account of results in ChEMBL document CHEMBL1201862, “PubChem BioAssay data set” (2004).

The source made the active and inactive calls.

Broadly, the EC50 is the concentration at which the effect is half-maximal. What is called IC50 is the point on the concentration scale where inhibition reaches its midpoint. Broadly, the Ki is the dissociation constant of the complex between target and ligand, obtained from inhibition or displacement.

The target of test [1] is T1, Trace amine-associated receptor 1 (Homo sapiens, UniProt Q96RJ0).
T1 sequence (Q96RJ0 whole entry): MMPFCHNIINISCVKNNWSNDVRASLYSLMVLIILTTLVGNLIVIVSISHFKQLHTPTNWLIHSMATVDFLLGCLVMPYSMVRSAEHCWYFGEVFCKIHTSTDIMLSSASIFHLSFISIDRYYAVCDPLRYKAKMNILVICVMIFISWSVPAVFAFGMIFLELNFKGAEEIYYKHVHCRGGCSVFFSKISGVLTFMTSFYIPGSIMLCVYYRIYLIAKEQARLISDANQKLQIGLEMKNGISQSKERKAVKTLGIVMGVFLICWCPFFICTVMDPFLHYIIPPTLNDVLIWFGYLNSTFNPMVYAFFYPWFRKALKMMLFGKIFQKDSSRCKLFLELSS
Put plainly: Fluorescence-based cell-based high throughput dose response assay to identify agonists of the human trace amine associated receptor 1 (TAAR1). The class given is functional.

In test [2] the target is T2, High affinity choline transporter 1 (Homo sapiens, UniProt Q9GZV3).
T2 sequence (Q9GZV3 whole entry): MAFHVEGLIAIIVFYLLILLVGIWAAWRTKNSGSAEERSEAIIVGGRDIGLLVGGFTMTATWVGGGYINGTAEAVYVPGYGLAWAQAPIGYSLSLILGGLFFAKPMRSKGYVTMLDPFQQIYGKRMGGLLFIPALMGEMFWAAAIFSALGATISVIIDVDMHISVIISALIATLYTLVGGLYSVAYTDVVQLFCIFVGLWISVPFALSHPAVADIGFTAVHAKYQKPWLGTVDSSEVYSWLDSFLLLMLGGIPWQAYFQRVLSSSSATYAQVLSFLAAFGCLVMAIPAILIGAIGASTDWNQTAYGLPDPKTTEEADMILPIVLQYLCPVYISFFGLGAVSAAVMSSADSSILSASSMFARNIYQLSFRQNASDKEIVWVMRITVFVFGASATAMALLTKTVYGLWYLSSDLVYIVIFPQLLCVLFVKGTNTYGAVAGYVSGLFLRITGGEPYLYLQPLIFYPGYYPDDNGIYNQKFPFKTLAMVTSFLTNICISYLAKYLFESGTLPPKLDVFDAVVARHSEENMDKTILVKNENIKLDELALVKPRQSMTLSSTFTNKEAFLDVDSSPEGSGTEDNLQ
Put plainly: human choline transporter potentiators, potency – cell-based, 10-point CRC, membrane potential dye, dose response (AID 602376). In kind it is functional.

Test [3] deals with T1, Trace amine-associated receptor 1. Put plainly: Counterscreen for agonists of the human trace amine associated receptor 1 (hTAAR1): Fluorescence-based cell-based high throughput dose response assay to identify hTAAR1 agonist that also desensitize TAAR1 receptor response. The class given is functional. (A counterscreen serves to expose hits that act by an unwanted route or on another target.)

Test [4] can be described thus: cells. The class given is functional, cell-based.
Test [5] is described as follows: cells. The class given is functional, cell-based. The source holds these as a separate data set.
The target of test [6] is Sphingosine 1-phosphate receptor 2 (Homo sapiens, UniProt O95136). Put plainly: Late-stage fluorescence-based dose-response cell-based counterscreen assay to identify agonists of the Sphingosine 1-Phosphate Receptor 3 (S1P3): Sphingosine 1-Phosphate Receptor 2 (S1P2) agonist assay. The class given is functional.
Chain of Sphingosine 1-phosphate receptor 2 (O95136 whole entry): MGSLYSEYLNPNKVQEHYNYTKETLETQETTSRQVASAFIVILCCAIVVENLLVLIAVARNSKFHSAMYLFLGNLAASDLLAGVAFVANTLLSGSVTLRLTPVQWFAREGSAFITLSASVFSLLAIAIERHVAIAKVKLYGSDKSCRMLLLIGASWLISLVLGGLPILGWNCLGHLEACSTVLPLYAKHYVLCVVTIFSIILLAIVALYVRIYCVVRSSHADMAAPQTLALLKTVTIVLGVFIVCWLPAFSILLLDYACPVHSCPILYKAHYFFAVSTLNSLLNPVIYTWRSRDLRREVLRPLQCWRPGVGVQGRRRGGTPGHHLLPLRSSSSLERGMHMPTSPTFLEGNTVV
The target of test [7] is Sphingosine 1-phosphate receptor 4 (Homo sapiens, UniProt O95977). The test can be described thus: Late-stage fluorescence-based dose-response cell-based counterscreen assay to identify agonists of the Sphingosine 1-Phosphate Receptor 3 (S1P3): Sphingosine 1-Phosphate Receptor 4 (S1P4) agonist assay. The class given is functional.
Chain of Sphingosine 1-phosphate receptor 4 (O95977 whole entry): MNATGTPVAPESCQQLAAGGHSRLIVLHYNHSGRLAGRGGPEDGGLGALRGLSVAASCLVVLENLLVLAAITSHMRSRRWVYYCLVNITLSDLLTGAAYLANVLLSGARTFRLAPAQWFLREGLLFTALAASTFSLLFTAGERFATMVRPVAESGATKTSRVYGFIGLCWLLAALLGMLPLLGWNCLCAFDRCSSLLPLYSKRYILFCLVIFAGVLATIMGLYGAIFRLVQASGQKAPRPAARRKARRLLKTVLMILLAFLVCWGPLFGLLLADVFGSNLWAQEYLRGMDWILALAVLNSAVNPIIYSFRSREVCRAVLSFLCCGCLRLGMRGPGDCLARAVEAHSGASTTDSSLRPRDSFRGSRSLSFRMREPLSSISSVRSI
Test [8] has as its target Inhibitor of nuclear factor kappa-B kinase subunit epsilon (Homo sapiens, UniProt Q14164). Put plainly: Navigating the Kinome. Panel member name: IKBKE. In kind it is functional.
Test [9] concerns the target Mitogen-activated protein kinase 9 (Homo sapiens, UniProt P45984). The class given is functional.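 Note: value from a kinome panel profiling assay, MAPK9 panel entry.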
In test [10] the target is Cyclin-dependent kinase 5 (Homo sapiens, UniProt Q00535). In kind it is functional.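 Note: CDK5 measured as one member of a kinase profiling panel.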
The target of test [11] is Dual specificity protein kinase CLK4 (Homo sapiens, UniProt Q9HAZ1). The class given is functional.
The next test concerns the target Focal adhesion kinase 1 (Homo sapiens, UniProt Q05397). The class given is functional.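 Note: measured as one member of a kinome panel.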
The target in test [12] is Mitogen-activated protein kinase 8 (Homo sapiens, UniProt P45983). The class given is functional.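 Note: value comes from one member of a kinome-wide kinase profiling panel.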
For the next test, the target named is Activated CDC42 kinase 1 (Homo sapiens, UniProt Q07912). The test can be described thus: Navigating the Kinome. Panel member name: ACK1. In kind it is functional.
Test [13] concerns the target Macrophage colony-stimulating factor 1 receptor (Homo sapiens, UniProt P07333). The class given is functional.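 Note: value comes from the Navigating the Kinome screening panel, CSF1R member.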
In test [14] the target is Serine/threonine-protein kinase PAK 4 (Homo sapiens, UniProt O96013). In kind it is functional.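 Note: value obtained within a kinome profiling panel in which PAK4 was one of the panel members.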
In test [15] the target is Protein kinase C theta type (Homo sapiens, UniProt Q04759). The test can be described thus: Navigating the Kinome. Panel member name: PRKCQ. In kind it is functional.
Test [16] addresses Mitogen-activated protein kinase kinase kinase kinase 4 (Homo sapiens, UniProt O95819). The class given is functional.
For test [17], the target named is Glycogen synthase kinase-3 alpha (Homo sapiens, UniProt P49840). In kind it is functional.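 Note: GSK3A result taken from a broad kinome-wide kinase panel.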
Test [18] concerns the target Leucine-rich repeat serine/threonine-protein kinase 2 (Homo sapiens, UniProt Q5S007). In kind it is functional.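 Note: value from a broad kinome-wide panel profiling study in which LRRK2 was one of the kinases tested.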
Test [19] addresses Death-associated protein kinase 3 (Homo sapiens, UniProt O43293). In kind it is functional.
Test [20] has as its target Casein kinase I isoform alpha (Homo sapiens, UniProt P48729). In kind it is functional.
Test [21] has as its target Tyrosine-protein kinase ABL1 (Homo sapiens, UniProt P00519). The class given is functional.
In test [22] the target is Tyrosine-protein kinase receptor TYRO3 (Homo sapiens, UniProt Q06418). In kind it is functional.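 Note: TYRO3 value obtained as one member of a kinome-wide profiling panel.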
In test [23] the target is Cyclin-dependent kinase 7 (Homo sapiens, UniProt P50613). In kind it is functional.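 Note: value comes from a kinome-wide kinase profiling panel in which CDK7 is one member.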
A further test addresses Aurora kinase A (Homo sapiens, UniProt O14965). The class given is functional.
The target of test [24] is Serine/threonine-protein kinase D3 (Homo sapiens, UniProt O94806). In kind it is functional.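 Note: determined within a kinase panel screen, with PRKCN as the panel member.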
Chain of Serine/threonine-protein kinase D3 (O94806 whole entry): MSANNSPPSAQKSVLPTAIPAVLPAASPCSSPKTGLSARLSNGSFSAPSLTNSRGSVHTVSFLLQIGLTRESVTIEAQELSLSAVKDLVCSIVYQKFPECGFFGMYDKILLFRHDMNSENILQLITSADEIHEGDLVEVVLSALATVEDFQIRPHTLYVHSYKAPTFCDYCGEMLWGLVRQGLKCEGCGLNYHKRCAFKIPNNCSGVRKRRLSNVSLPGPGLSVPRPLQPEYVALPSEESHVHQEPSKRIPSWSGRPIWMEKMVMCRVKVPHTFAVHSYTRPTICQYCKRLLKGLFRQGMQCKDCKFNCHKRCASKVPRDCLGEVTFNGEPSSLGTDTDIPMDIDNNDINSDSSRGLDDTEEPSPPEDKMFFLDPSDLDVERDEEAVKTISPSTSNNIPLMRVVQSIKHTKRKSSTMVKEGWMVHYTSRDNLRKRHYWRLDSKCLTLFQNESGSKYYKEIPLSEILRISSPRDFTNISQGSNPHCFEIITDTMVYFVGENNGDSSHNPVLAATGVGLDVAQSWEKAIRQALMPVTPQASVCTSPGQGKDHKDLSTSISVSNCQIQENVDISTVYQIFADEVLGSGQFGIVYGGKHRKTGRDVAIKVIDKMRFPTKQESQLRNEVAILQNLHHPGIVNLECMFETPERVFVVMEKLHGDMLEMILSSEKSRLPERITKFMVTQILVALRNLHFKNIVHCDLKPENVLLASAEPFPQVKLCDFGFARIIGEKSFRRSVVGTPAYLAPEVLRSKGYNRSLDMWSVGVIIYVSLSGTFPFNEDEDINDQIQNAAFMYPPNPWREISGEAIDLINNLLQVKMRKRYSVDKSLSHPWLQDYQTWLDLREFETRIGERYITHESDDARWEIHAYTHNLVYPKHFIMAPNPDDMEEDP
Test [25] concerns the target Dual specificity mitogen-activated protein kinase kinase 1 (Homo sapiens, UniProt Q02750). Put plainly: Navigating the Kinome. Panel member name: MAP2K1. In kind it is functional.
The target in test [26] is Cyclin-dependent kinase 8 (Homo sapiens, UniProt P49336). Put plainly: Navigating the Kinome. Panel member name: CDK8. In kind it is functional.
Test [27] deals with Glycogen synthase kinase-3 beta (Homo sapiens, UniProt P49841). In kind it is functional.
Test [28] deals with Vascular endothelial growth factor receptor 2 (Homo sapiens, UniProt P35968). The class given is functional.
Test [29] has as its target Dual specificity tyrosine-phosphorylation-regulated kinase 1A (Homo sapiens, UniProt Q13627). The class given is functional.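 Note: measured against DYRK1A as one member of a broad kinome profiling panel.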
The target of test [30] is Tyrosine-protein kinase BTK (Homo sapiens, UniProt Q06187). The class given is functional.
Test [31] concerns the target Serine/threonine-protein kinase TBK1 (Homo sapiens, UniProt Q9UHD2). Put plainly: Navigating the Kinome. Panel member name: TBK1. In kind it is functional.
The target of test [32] is Leukocyte tyrosine kinase receptor (Homo sapiens, UniProt P29376). The test can be described thus: Navigating the Kinome. Panel member name: LTK. The class given is functional.
Test [33] deals with Vascular endothelial growth factor receptor 1 (Homo sapiens, UniProt P17948). In kind it is functional.
Test [34] addresses Dual specificity mitogen-activated protein kinase kinase 2 (Homo sapiens, UniProt P36507). Put plainly: Navigating the Kinome. Panel member name: MAP2K2. In kind it is functional.
Test [35] concerns the target Rho-associated protein kinase 1 (Homo sapiens, UniProt Q13464). In kind it is functional.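 Note: measured within a broad kinome-wide panel profiling many kinases.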
Test [36] deals with ALK tyrosine kinase receptor (Homo sapiens, UniProt Q9UM73). In kind it is functional.
For test [37], the target named is Tyrosine-protein kinase JAK2 (Homo sapiens, UniProt O60674). In kind it is functional.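 Note: JAK2 tested as one member of a kinase panel.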
Test [38] has as its target Dual specificity protein kinase CLK2 (Homo sapiens, UniProt P49760). In kind it is functional.
The target of test [39] is cAMP-dependent protein kinase catalytic subunit alpha (Homo sapiens, UniProt P17612). The class given is functional.
Test [40] deals with Platelet-derived growth factor receptor beta (Homo sapiens, UniProt P09619). In kind it is functional.
Chain of Platelet-derived growth factor receptor beta (P09619 whole entry): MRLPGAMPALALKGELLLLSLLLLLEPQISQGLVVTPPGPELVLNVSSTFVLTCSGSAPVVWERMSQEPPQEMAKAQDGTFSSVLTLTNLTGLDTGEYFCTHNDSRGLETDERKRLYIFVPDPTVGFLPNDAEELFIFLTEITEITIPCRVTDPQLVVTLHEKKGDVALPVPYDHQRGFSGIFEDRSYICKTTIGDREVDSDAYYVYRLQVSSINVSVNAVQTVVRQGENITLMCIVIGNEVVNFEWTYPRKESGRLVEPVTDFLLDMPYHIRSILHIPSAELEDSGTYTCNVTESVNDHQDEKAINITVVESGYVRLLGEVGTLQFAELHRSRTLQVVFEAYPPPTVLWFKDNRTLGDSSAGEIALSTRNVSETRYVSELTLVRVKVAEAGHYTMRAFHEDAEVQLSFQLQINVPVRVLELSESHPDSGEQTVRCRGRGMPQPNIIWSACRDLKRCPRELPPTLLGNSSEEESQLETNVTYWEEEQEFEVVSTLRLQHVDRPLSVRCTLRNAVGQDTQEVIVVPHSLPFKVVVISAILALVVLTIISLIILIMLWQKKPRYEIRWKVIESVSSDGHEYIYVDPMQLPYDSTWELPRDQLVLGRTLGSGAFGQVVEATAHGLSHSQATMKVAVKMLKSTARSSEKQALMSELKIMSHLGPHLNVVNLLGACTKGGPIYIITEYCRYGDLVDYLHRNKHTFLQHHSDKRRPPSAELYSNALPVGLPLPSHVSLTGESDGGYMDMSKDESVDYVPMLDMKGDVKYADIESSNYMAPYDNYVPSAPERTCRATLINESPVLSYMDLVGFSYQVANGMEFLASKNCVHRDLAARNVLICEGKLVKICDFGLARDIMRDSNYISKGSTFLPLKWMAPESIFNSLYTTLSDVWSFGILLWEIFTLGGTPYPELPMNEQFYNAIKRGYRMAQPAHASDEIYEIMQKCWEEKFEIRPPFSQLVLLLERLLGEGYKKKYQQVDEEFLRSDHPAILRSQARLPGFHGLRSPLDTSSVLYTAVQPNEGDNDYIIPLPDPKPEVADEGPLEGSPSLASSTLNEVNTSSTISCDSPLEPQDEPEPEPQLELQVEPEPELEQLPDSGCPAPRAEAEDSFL
Another test deals with Aurora kinase B (Homo sapiens, UniProt Q96GD4). In kind it is functional.
In test [41] the target is Fibroblast growth factor receptor 1 (Homo sapiens, UniProt P11362). In kind it is functional.
In test [42] the target is Ribosomal protein S6 kinase alpha-3 (Homo sapiens, UniProt P51812). The class given is functional.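 Note: measured within a kinome-wide profiling panel.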
The target of test [43] is 5'-AMP-activated protein kinase catalytic subunit alpha-1 (Homo sapiens, UniProt Q13131). The class given is functional.
Test [44] has as its target Macrophage-stimulating protein receptor (Homo sapiens, UniProt Q04912). The test can be described thus: Navigating the Kinome. Panel member name: MST1R. The class given is functional.
In another test the target is Activin receptor type-1 (Homo sapiens, UniProt Q04771). Put plainly: Navigating the Kinome. Panel member name: ACVR1. In kind it is functional.
Test [45] concerns the target Tyrosine-protein kinase JAK3 (Homo sapiens, UniProt P52333). The class given is functional.
For test [46], the target named is Cyclin-dependent kinase 9 (Homo sapiens, UniProt P50750). The class given is functional.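 Note: value from the CDK9 entry of a kinome-spanning kinase panel.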
Test [47] addresses Mitogen-activated protein kinase kinase kinase kinase 2 (Homo sapiens, UniProt Q12851). The class given is functional.
Test [48] has as its target Dual specificity tyrosine-phosphorylation-regulated kinase 1B (Homo sapiens, UniProt Q9Y463). Put plainly: Navigating the Kinome. Panel member name: DYRK1B. In kind it is functional.

Chain of Macrophage-stimulating protein receptor (Q04912 25-304 limits assumed): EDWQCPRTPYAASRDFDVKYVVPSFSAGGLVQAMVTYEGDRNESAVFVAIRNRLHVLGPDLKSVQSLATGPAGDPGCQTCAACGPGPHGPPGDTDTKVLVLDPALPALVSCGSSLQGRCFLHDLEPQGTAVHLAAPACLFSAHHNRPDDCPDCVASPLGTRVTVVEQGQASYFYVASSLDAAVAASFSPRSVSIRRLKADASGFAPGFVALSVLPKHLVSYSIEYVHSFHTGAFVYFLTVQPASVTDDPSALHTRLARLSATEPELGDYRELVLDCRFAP
Chain of Macrophage-stimulating protein receptor (Q04912 310-1400 limits assumed): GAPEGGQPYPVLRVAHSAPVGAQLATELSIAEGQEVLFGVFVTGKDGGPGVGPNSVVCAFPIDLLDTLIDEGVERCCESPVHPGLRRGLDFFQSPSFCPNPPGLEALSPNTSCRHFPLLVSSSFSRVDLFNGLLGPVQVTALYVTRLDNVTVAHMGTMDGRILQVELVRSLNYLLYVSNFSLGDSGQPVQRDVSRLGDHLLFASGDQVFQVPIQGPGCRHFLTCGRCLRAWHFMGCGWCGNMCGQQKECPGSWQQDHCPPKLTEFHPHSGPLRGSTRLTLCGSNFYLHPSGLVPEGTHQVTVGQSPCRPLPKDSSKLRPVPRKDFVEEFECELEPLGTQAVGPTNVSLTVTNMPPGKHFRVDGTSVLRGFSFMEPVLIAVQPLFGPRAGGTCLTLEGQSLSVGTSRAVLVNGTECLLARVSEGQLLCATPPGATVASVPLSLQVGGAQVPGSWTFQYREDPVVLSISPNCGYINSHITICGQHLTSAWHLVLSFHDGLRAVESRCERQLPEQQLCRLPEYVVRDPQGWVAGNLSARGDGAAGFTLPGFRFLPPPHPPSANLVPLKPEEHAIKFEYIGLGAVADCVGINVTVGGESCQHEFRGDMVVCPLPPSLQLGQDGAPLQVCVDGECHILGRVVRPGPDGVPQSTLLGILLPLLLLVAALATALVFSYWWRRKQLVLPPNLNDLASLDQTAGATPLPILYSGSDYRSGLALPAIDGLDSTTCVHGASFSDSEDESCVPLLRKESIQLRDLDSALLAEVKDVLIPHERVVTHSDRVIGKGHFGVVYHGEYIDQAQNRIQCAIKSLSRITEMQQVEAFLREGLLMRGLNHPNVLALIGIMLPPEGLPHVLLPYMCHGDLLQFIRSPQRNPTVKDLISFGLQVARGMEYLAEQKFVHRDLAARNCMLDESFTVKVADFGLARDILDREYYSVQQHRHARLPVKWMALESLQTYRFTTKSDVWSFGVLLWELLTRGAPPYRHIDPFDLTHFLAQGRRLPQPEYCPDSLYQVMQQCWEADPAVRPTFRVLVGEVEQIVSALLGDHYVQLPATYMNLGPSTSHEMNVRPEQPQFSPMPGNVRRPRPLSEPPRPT
Chain of Macrophage colony-stimulating factor 1 receptor (P07333 whole entry): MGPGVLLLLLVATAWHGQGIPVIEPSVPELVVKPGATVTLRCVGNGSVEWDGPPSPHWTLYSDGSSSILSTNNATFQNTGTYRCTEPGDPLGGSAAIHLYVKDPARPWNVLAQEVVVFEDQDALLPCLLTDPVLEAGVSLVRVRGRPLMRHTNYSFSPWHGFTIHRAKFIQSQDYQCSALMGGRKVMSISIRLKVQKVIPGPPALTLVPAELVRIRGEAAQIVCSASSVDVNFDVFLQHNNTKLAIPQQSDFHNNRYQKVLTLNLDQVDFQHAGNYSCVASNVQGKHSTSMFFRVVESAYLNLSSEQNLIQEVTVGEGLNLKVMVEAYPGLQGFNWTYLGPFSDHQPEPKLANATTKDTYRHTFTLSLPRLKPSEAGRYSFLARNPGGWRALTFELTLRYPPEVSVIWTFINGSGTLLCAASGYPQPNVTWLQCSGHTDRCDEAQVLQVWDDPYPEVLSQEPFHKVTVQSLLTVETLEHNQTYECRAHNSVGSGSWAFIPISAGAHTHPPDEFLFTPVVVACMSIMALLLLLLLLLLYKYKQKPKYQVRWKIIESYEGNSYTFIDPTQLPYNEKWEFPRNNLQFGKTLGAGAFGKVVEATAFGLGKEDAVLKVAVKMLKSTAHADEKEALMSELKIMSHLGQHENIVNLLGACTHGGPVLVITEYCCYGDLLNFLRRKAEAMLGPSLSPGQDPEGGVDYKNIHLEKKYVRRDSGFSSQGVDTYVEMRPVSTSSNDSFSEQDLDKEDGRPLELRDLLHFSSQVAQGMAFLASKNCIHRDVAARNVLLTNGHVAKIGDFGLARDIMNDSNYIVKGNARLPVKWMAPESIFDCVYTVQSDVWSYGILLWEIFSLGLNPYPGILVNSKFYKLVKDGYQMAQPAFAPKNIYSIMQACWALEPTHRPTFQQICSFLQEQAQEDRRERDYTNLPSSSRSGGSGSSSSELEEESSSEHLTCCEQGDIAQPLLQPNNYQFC

Consider `CC(C)CC(C(=O)N1CCc2ccccc2C1)N1C(=O)c2ccccc2C1=O` (stereo not drawn), for which the EC50 is 2.96 µM (active) in test [1], 22.4 µM (active) in test [2] and > 29.9 µM (inactive) in “cells [5]”. The IC50 is 5.55 µM (active) in [3] and > 29.9 µM (inactive) in the test “cells [4]”.
Regarding `CCCc1cc(C(=O)N(C2CCCCC2)C2CCCC2)no1`, the EC50 in test [6] and in test [7] was > 50 µM (inactive) each time.
On to `Fc1cccc(CNc2ncnc3nc[nH]c23)c1`, for which the Ki was 100 µM (active) in test [8]; 50.1 µM (active) in test [9]; 5.01 µM (active) in test [10]; 1.58 µM (active) in test [11]; 79.4 µM (active) on Focal adhesion kinase 1; 15.8 µM (active) in test [12]. The Ki was 25.1 µM (active) at Activated CDC42 kinase 1; 31.6 µM (active) in test [13]; 20 µM (active) in test [14]; 50.1 µM (active) in test [15]; 79.4 µM (active) in [16]; 50.1 µM (active) in [17]. Further, the inhibitory constant (Ki) in test [18] was 2 µM (active); in test [19], 31.6 µM (active); in test [20] it was 10 µM (active); in test [21] it was 50.1 µM (active); in test [22], 63.1 µM (active); in test [23], 31.6 µM (active). Also, the Ki at Aurora kinase A was 39.8 µM (active); in test [24], 63.1 µM (active); in [25], 10 µM (active); in test [26], 12.6 µM (active); in test [27], 50.1 µM (active); in [28] it was 25.1 µM (active). Moreover, the inhibition constant Ki in test [29] was 39.8 µM (active); in test [30], 63.1 µM (active); in test [31], 63.1 µM (active); in test [32] it was 15.8 µM (active); in test [33], 79.4 µM (active); in test [34], 39.8 µM (active). The Ki in [35] was 5.01 µM (active); in test [36], 63.1 µM (active); in test [37], 31.6 µM (active); in test [38], 25.1 µM (active); in test [39], 10 µM (active); in test [40] it was 12.6 µM (active). Further, the Ki on Aurora kinase B was 15.8 µM (active); in [41], 25.1 µM (active); in test [42], 39.8 µM (active); in test [43], 15.8 µM (active); in [44] it was 31.6 µM (active); on Activin receptor type-1, 39.8 µM (active). For the same compound, the inhibition constant Ki in [45] was 63.1 µM (active); in test [46] it was > 63.1 µM (inactive); in [47], 79.4 µM (active); in [48] it was 12.6 µM (active).
